Experimental data published in article PMC8881069, “Thio- and selenosemicarbazones as antiprotozoal agents against Trypanosoma cruzi and Trichomonas vaginalis” (Journal of Enzyme Inhibition and Medicinal Chemistry, 2022).

Experiments:
[1] = tested on: Trypanosoma cruzi CL-B5 (DTU TcVI) epimastigotes; test: CL-B5 lacZ epimastigote susceptibility assay (CPRG); assay type: cell-based; settings: T. cruzi CL-B5 lacZ epimastigotes, 72 h, mean ± SD, n = 3
L929 cells = test: Unspecific cytotoxicity assay on L929 fibroblasts (resazurin); assay type: cell-based; settings: mean ± SD, n = 3; for CC50 at 72 h: mouse; for CC50: 72 h
Trichomonas vaginalis = test: Trichomonacidal in vitro assay (resazurin); assay type: cell-based; settings: isolate JH31A#4, 24 h, brackets: 95% confidence interval
Vero cells = test: Unspecific cytotoxicity assay in Vero cells (resazurin); assay type: cell-based, African green monkey; settings: for CC50 at 24 h: African green monkey; for CC50 at 24 h / CC50: Vero cells, brackets: 95% confidence interval, 24 h; for unspecific cytotoxicity towards Vero cells (in words): highest concentration evaluated (300 µM)
[2] = tested on: hydrogenosome membrane potential of T. vaginalis; test: Hydrogenosomal membrane potential assay (JC-1); settings: Figure 3; 4 h; 51 and 63 at 100 µM, MTZ 24 µM, CCCP 50 µM
[3] = tested on: Trypanosoma cruzi Y (DTU TcII) epimastigotes; test: Y strain epimastigote susceptibility assay (resazurin); assay type: cell-based; settings: Trypanosoma cruzi; T. cruzi Y strain epimastigotes, 48 h, mean ± SD, n = 3
J774 cells = test: Unspecific cytotoxicity assay on J774 macrophages (resazurin); assay type: cell-based, mouse; settings: mouse, mean ± SD, n = 3
[4] = tested on: Trypanosoma cruzi CL-B5 amastigotes; test: CL-B5 lacZ intracellular amastigote susceptibility assay (CPRG); assay type: cell-based; settings: Trypanosoma cruzi, 168 h; intracellular amastigotes in L929 cells, 7 days, mean ± SD, n = 3
[5] = Vero CCL-81 cells (kidney epithelial cells)

| Compound | IC50 ([1]; Trypanosoma cruzi) | CC50 at 72 h (L929 cells) | IC50 (Trichomonas vaginalis; Trichomonas vaginalis, 24 h) | CC50 at 24 h (Vero cells; [5]) | further results |
| --- | --- | --- | --- | --- | --- |
| Oc1ccc(/C=N/NC(=S)Nc2ccc(Br)cc2)cc1 [Compound 47] | 42.8 ± 12 µM | 67 ± 5.43 µM | 52.4 µM | – | – |
| COc1ccc(/C=N/NC(=S)Nc2ccc(Br)cc2)cc1 [Compound 48] | > 256 µM | > 256 µM | 55.1 µM | – | – |
| Oc1ccc(/C=N/NC(=S)Nc2ccc(Br)cc2)cc1O [Compound 49] | 104 ± 15.7 µM | 16.7 ± 0.7 µM | 11.1 µM | ≥ 275 µM | IC50 (Trichomonas vaginalis): 16.4 µM; CC50 (Vero cells): > 300 µM; unspecific cytotoxicity towards Vero cells (in words) (Vero cells): did not exhibit unspecific cytotoxicity |
| Oc1ccc(/C=N/NC(=S)Nc2ccc(I)cc2)cc1 [Compound 50] | 22.8 ± 1.61 µM | 41.4 ± 8.36 µM | 42.2 µM | > 300 µM | – |
| COc1ccc(/C=N/NC(=S)Nc2ccc(I)cc2)cc1 [Compound 51] | > 256 µM | > 256 µM | 14.8 µM | ≥ 275 µM | IC50 (Trichomonas vaginalis): 14.8 µM; CC50 (Vero cells): > 300 µM; unspecific cytotoxicity towards Vero cells (in words) (Vero cells): did not exhibit unspecific cytotoxicity; JC-1 fluorescence distribution in trophozoites (fluorescence microscopy) [2]: fluorescence restricted to certain regions of the parasite |
| Oc1ccc(/C=N/NC(=S)Nc2ccc(I)cc2)cc1O [Compound 52] | 69.4 ± 4.73 µM | 20.8 ± 7.92 µM | 24.9 µM | > 300 µM | – |
| O=[N+]([O-])c1ccccc1NC(=S)N/N=C/c1ccc(O)cc1 [Compound 53] | 21.8 ± 2.98 µM | 34.9 ± 8.65 µM | 92.8 µM | – | – |
| COc1ccc(/C=N/NC(=S)Nc2ccccc2[N+](=O)[O-])cc1 [Compound 54] | 210 ± 14.5 µM | > 256 µM | 34.2 µM | > 300 µM | – |
| O=[N+]([O-])c1ccccc1NC(=S)N/N=C/c1ccc(O)c(O)c1 [Compound 55] | 42 ± 9.06 µM | 21.4 ± 4.12 µM | 133 µM | – | – |
| O=[N+]([O-])c1cccc(NC(=S)N/N=C/c2ccc(O)cc2)c1 [Compound 56] | 36.9 ± 3.84 µM | 28.8 ± 3.25 µM | 24.3 µM | 169 µM | – |
| COc1ccc(/C=N/NC(=S)Nc2cccc([N+](=O)[O-])c2)cc1 [Compound 57] | 23 ± 6.33 µM | > 256 µM | 51.9 µM | – | IC50 [3]: > 256 µM; CC50 at 48 h (J774 cells): > 256 µM; IC50 [4]: 22.3 ± 4.2 µM |
| O=[N+]([O-])c1cccc(NC(=S)N/N=C/c2ccc(O)c(O)c2)c1 [Compound 58] | 33.8 ± 7.59 µM | 12 ± 1.42 µM | 73.4 µM | – | – |
| O=[N+]([O-])c1ccc(NC(=S)N/N=C/c2ccc(O)cc2)cc1 [Compound 59] | 76.4 ± 9.91 µM | 29.4 ± 2.52 µM | 36 µM | 254 µM | – |
| COc1ccc(/C=N/NC(=S)Nc2ccc([N+](=O)[O-])cc2)cc1 [Compound 60] | > 256 µM | > 256 µM | 155 µM | – | – |
| O=[N+]([O-])c1ccc(NC(=S)N/N=C/c2ccc(O)c(O)c2)cc1 [Compound 61] | 111 ± 14.8 µM | 5.37 ± 0.3 µM | 128 µM | – | – |
| O=[N+]([O-])c1ccc(/C=N/NC(=S)Nc2ccc([N+](=O)[O-])cc2)cc1 [Compound 62] | > 256 µM | 53.5 ± 4.82 µM | 152 µM | – | – |
| Oc1ccc(/C=N/NC(=S)Nc2cccc3ccccc23)cc1 [Compound 63] | – | – | – | – | IC50 [1]: 53.6 ± 11.3 µM; CC50 (L929 cells): 31.1 ± 9.21 µM; IC50 (Trichomonas vaginalis): 14.9 µM; CC50 (Vero cells): 275 µM; JC-1 fluorescence distribution in trophozoites (fluorescence microscopy) [2]: fluorescence restricted to certain regions of the parasite |
| COc1ccc(/C=N/NC(=S)Nc2cccc3ccccc23)cc1 [Compound 64] | – | – | – | – | IC50 [1]: > 256 µM; CC50 (L929 cells): > 256 µM; IC50 (Trichomonas vaginalis): 30.5 µM; CC50 (Vero cells): > 300 µM |
| Oc1ccc(/C=N/NC(=S)Nc2cccc3ccccc23)cc1O [Compound 65] | – | – | – | – | IC50 [1]: 70.2 ± 6.99 µM; CC50 (L929 cells): 28.8 ± 7.77 µM; IC50 (Trichomonas vaginalis): 20.1 µM; CC50 (Vero cells): 175 µM |
| Oc1ccc(/C=N/NC(=[Se])Nc2ccc(Br)cc2)cc1O [Compound 74] | – | – | 11.1 µM | – | CC50 at 24 h (Vero cells): 114 µM |
| COc1ccc(/C=N/NC(=[Se])Nc2ccc(I)cc2)cc1 [Compound 75] | – | – | 11 µM | – | unspecific cytotoxicity towards Vero cells (in words) (Vero cells): did not present toxic effects at the maximum concentration tested |
| Cc1ncc([N+](=O)[O-])n1CCO [Metronidazole, metronidazole, reference compound] | – | – | 2.68 µM | > 300 µM | JC-1 fluorescence distribution in trophozoites (fluorescence microscopy) [2]: fluorescence restricted to certain regions of the parasite |
